The values that follow come from US20110015413A1, “PROCESS FOR PREPARING CRYSTALLINE CALCIUM MUPIROCIN DIHYDRATE” (priority 2008, published 2011).

Data set [1] can be described thus: Morphology and particle size by thermal field scanning electron microscopy (FE SEM). In kind it is physicochemical. Particulars: fused primary particles formed during crystallisation, FIG. 2. From the text: The morphology of crystalline mupirocin calcium dihydrate produced according to the procedure of Example 2 was examined by thermal field scanning electron microscopy (FE SEM). An FE SEM microscope, model JSM-7000F, manufactured by Jeol Ltd., Japan, was used in the inspection of samples. The FE SEM microscope was coupled with an EDS/INCA 350 (energy dispersive X-ray analyzer) manufactured by Oxford Instruments Ltd. The samples inspected by FE SEM were not coated with a conductive layer. […] Calcium mupirocin dihydrate crystallize in a columnar particle shape having a mean particle size from about 100 to about 700 nm. During the crystallisation process primary particles, i.e., crystals, are fused to form agglomerates (FIG. 2) having a mean particle size of about 10 μm. During the drying process, the agglomerates adhere to each other, forming aggregates having a mean particle size from about 30 μm to about 400 μm.

For data set [2] the following is noted: amorphous form, quoted description; cited from earlier work.
The conditions of data set [3]: amorphous form, quoted description; cited from earlier work. The source holds these as a separate data set.

As for `C/C(=C\C(=O)OCCCCCCCCC(=O)O)C[C@@H]1OC[C@H](C[C@@H]2O[C@H]2[C@@H](C)[C@H](C)O)[C@@H](O)[C@H]1O` [Calcium mupirocin dihydrate, mupirocin calcium dihydrate], the “mean particle size of agglomerates” value in data set [1] is “about 10 μm”.

With `C/C(=C\C(=O)OCCCCCCCCC(=O)[O-])C[C@@H]1OC[C@H](C[C@@H]2O[C@H]2[C@@H](C)[C@H](C)O)[C@@H](O)[C@H]1O.C/C(=C\C(=O)OCCCCCCCCC(=O)[O-])C[C@@H]1OC[C@H](C[C@@H]2O[C@H]2[C@@H](C)[C@H](C)O)[C@@H](O)[C@H]1O.O.O.[Ca+2]` [amorphous calcium salt of mupirocin], in data set [2], the thermal stability entry is recorded as “poor thermal stability”. Further, the water solubility result in data set [3] is on record as “sparingly water soluble”.
